Results published in BigSolDB 2.1.

| solubility (mole fraction) (in ethanol, 283.15 K) | solubility (mole fraction) (in ethanol, 288.15 K) | solubility (mole fraction) (in ethanol, 293.15 K) | solubility (mole fraction) (in ethanol, 298.15 K) | solubility (mole fraction) (in ethanol, 303.15 K) | solubility (mole fraction) (in ethanol, 308.15 K) | solubility (mole fraction) (in ethanol, 313.15 K) | solubility (mole fraction) (in ethanol, 318.15 K) | solubility (mole fraction) (in ethanol, 323.15 K) | solubility (mole fraction) (in ethyl acetate, 283.15 K) | solubility (mole fraction) (in ethyl acetate, 288.15 K) | solubility (mole fraction) (in ethyl acetate, 293.15 K) | solubility (mole fraction) (in ethyl acetate, 298.15 K) | solubility (mole fraction) (in ethyl acetate, 303.15 K) | solubility (mole fraction) (in ethyl acetate, 308.15 K) | solubility (mole fraction) (in ethyl acetate, 313.15 K) | solubility (mole fraction) (in ethyl acetate, 318.15 K) | solubility (mole fraction) (in ethyl acetate, 323.15 K) | Compound |
| --- | --- | --- | --- | --- | --- | --- | --- | --- | --- | --- | --- | --- | --- | --- | --- | --- | --- | --- |
| 0.0358 | 0.0381 | 0.0414 | 0.0461 | 0.0514 | 0.0559 | 0.0621 | 0.0675 | 0.0735 | 0.00928 | 0.0101 | 0.0114 | 0.0129 | 0.0145 | 0.0164 | 0.0185 | 0.0208 | 0.0232 | O=C(O)/C=C/c1ccc(O)cc1 |
| 0.0673 | 0.0698 | 0.0734 | 0.0785 | 0.082 | 0.0854 | 0.0902 | 0.0938 | 0.0985 | 0.109 | 0.115 | 0.118 | 0.125 | 0.128 | 0.133 | 0.137 | 0.142 | 0.15 | COc1cc(C=O)ccc1O |
